Test results reported in publication PMC9609667, “Serendipitous Discovery of a Competitive Inhibitor of FraB, a Salmonella Deglycase and Drug Target” (Pathogens, 2022).

What was measured:
FrlB = target: T1, FrlB (Salmonella enterica, UniProt Q8ZJX7); test: native mass spectrometry (dimer with one or two ligands); about […] inhibition at […] in coupled assay; assay type: binding
T1 construct: gene STM4540; recombinant FrlB, His6 tag removed
T1 sequence (Q8ZJX7 1-343): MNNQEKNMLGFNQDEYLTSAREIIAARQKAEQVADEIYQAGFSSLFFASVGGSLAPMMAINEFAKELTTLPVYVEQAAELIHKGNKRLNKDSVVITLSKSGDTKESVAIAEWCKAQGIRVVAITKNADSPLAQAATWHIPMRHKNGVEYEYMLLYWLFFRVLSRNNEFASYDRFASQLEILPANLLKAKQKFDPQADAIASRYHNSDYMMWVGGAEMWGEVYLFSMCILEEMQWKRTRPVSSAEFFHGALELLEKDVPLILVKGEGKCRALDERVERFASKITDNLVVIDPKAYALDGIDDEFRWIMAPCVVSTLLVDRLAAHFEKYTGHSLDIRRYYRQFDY

FraB = target: T2, FraB (Salmonella enterica, UniProt Q8ZLD0); test: G6PDH-coupled deglycase assay, Michaelis-Menten analysis; binding confirmed by native MS; assay type: biochemical
T2 construct: gene STM3601; 325-aa construct, N-terminal His6-tag

[1] = target: FraB, a Salmonella deglycase (Salmonella); test: native MS; 3 uM FraB or FrlB mixed with 150, 300 or 450 uM 2-deoxy-6-P-GA; 200 mM ammonium acetate (pH adjusted to 7.4 for FraB); mixed at 25 °C, incubated 30 min at room temperature; nano-ESI, Q Exactive UHMR Orbitrap
[2] = target: FrlB deglycase (Salmonella) (Salmonella); test: as above

`O=C(O)C[C@@H](O)[C@H](O)[C@H](O)COP(=O)(O)O` [2-deoxy-6-P-GA, 2-deoxy-6-phosphogluconate] was tested, and the “native mass spectrometry (dimer with one or two ligands); about 50% inhibition a” value (FrlB) was “These results confirm the direct interaction of 2-deoxy-6-P-GA to FraB and FrlB” and the Ki (FraB) was 3.3 µM.
FraB, a Salmonella deglycase (enzyme) showed a stoichiometry N [1] of 2.
Compound FrlB deglycase (Salmonella) (enzyme) has a stoichiometry N [2] of 2.
